Test results reported in US20260176284A1, “Compounds with Anti-KRAS Mutated Tumor Activity” (Trasveda Ltd., priority 2022, published 2026).
pIC50: −log10 of the molar value.

Tested on: KRAS G12D mutated AGS human gastric adenocarcinoma cells
Experiment: Proliferation inhibition of KRAS G12D mutant AGS cells, another experiment with similar protocol (includes MRTX1133)
Type: cell-based
Conditions: Homo sapiens
Procedure: In another experiment, using a protocol similar to the one described above, the inhibitory activity of some representative compounds of the present invention against KRAS G12D mutated AGS human gastric adenocarcinoma cells was determined.
The synthesis of compound MRTX1133 was performed according to the method described in J. Med. Chem. 2022, 65, 4, 3123-3133.

SMILES	pIC50
CN1CC[C@H](CF)[C@](C)(COc2nc(N3CC4CCC(C3)N4)c3cc(F)c(-c4c(C#N)c(N)cc(Cl)c4C(F)(F)F)c(F)c3n2)C1 (single isomer, unassigned) [Example 122-1, (Ra or Sa)-2-(4-((1R,5S)-3,8-diazabicyclo[3.2.1]octan-3-yl)-6,8-difluoro-2-(((3S,4S)-4-(fluoromethyl)-1,3-dimethylpiperidin-3-yl)methoxy)quinazolin-7-yl)-6-amino-4-chloro-3-(trifluoromethyl) benzonitrile·trifluoroacetate]	7.47
C#Cc1c(F)ccc2cc(O)cc(-c3c(F)cc4c(N5C[C@H]6CC[C@@H](C5)N6)nc(OC[C@]5(C)CN(CC)CC/C5=C\F)nc4c3F)c12 [Example 79, 4-(4-((1R,5S)-3,8-diazabicyclo[3.2.1]octan-3-yl)-2-(((S,E)-1-ethyl-4-(fluoromethylene)-3-methylpiperidin-3-yl)methoxy)-6,8-difluoroquinazoline-7-yl)-5-ethynyl-6-fluoronaphthalene-2-ol]	8.40
C#Cc1c(F)ccc2cc(O)cc(-c3nc(OC)c4c(N5C[C@H]6CC[C@@H](C5)N6)nc(OC[C@]5(C)CN(C)CC[C@H]5F)nc4c3F)c12 [Example 263, 4-(4-((1R,5S)-3,8-diazabicyclo[3.2.1]octan-3-yl)-8-fluoro-2-(((3S,4R)-4-fluoro-1,3-dimethylpiperidin-3-yl)methoxy)-5-methoxypyrido[4,3-d]pyrimidin-7-yl)-5-ethynyl-6-fluoronaphthalen-2-ol]	7.92
CN1CC/C(=C\F)[C@](C)(COc2nc(N3C[C@H]4CC[C@@H](C3)N4)c3cc(C(F)(F)F)c(-c4c(F)ccc5sc(N)c(C#N)c45)c(F)c3n2)C1 (single isomer, unassigned) [Example 362-1]	8.30
C#Cc1c(F)ccc2cc(O)cc(-c3ncc4c(N5CC6CCC(C5)N6)nc(OC[C@]5(C)CN(C)CC[C@H]5F)nc4c3F)c12 [Example 67-3]	7.77
CN1CC[C@H](C(F)F)[C@](C)(COc2nc(N3C[C@H]4CC[C@@H](C3)N4)c3cc(C(F)(F)F)c(-c4c(F)ccc5sc(N)c(C#N)c45)c(F)c3n2)C1 (single isomer, unassigned) [Example 363-1]	8.40
CN1CC/C(=C\F)[C@](C)(COc2nc(N3CC4CCC(C3)N4)c3cc(C(F)(F)F)c(-c4cccc5sc(N)c(C#N)c45)c(F)c3n2)C1 (single isomer, unassigned) [Example 318-1]	8.05
C#Cc1c(F)ccc2cc(O)cc(-c3nc(OC)c4c(N5C[C@H]6CC[C@@H](C5)N6)nc(OC[C@]5(C)CN(C)CCC5=C)nc4c3F)c12 [Example 258, 4-(4-((1R,5S)-3,8-diazabicyclo[3.2.1]octan-3-yl)-2-(((S)-1,3-dimethyl-4-methylenepiperidin-3-yl)methoxy)-8-fluoro-5-methoxypyrido[4,3-d]pyrimidin-7-yl)-5-ethynyl-6-fluoronaphthalen-2-ol]	8.10
CN1CC/C(=C\F)[C@](C)(COc2nc(N3C[C@H]4CC[C@@H](C3)N4)c3cc(C(F)(F)F)c(-c4cccc5sc(N)c(C#N)c45)c(F)c3n2)C1 [Example 318, 4-(4-((1R,5S)-3,8-diazabicyclo[3.2.1]octan-3-yl)-8-fluoro-2-(((S,E)-4-(fluoromethylene)-1,3-dimethylpiperidin-3-yl)methoxy)-6-(trifluoromethyl)quinazolin-7-yl)-2-aminobenzo[b]thiophene-3-carbonitrile]	7.55
C#Cc1c(F)ccc2cc(O)cc(-c3c(F)cc4c(N5CC6CCC(C5)N6)nc(OC[C@]5(C)CN(CC)CC[C@@H]5C)nc4c3F)c12 (atropisomer, axis not shown; (Ra)) [Example 52-1, (Ra)-4-(4-((1R,5S)-3,8-diazabicyclo[3.2.1]octan-3-yl)-2-(((35,4S)-1-ethyl-3,4-dimethyl-piperidin-3-yl)methoxy)-6,8-difluoroquinazolin-7-yl)-5-ethynyl-6-fluoro-naphthalen-2-ol]	8.00
C#Cc1c(F)ccc2cc(O)cc(-c3ncc4c(N5CC6CCC(C5)N6)nc(OC[C@]5(C)CN(C)CC[C@@H]5CF)nc4c3F)c12 [Example 71-2]	8.10
[2H]C([2H])([2H])N1CC[C@H](C(F)F)[C@](C)(C([2H])([2H])Oc2nc(N3CC4CCC(C3)N4)c3cc(Cl)c(-c4cccc5sc(N)c(C#N)c45)c(F)c3n2)C1 (single isomer, unassigned) [Example 315-2]	7.89
CN1CCC(F)(F)[C@](C)(COc2nc(N3CC4CCC(C3)N4)c3cc(F)c(-c4cc(O)cc(Cl)c4C4CC4)c(F)c3n2)C1 [Example 29-1A, 3-(4-((1R,5S)-3,8-diazabicyclo[3.2.1]octane-3-yl)-2-(((S)-4,4-difluoro-1,3-dimethylpiperidin-3-yl)methoxy)-6,8-difluoroquinolin-7-yl)-5-chloro-4-cyclopropylphenol·diformate]	6.20
CCc1c(F)ccc2cc(O)cc(-c3c(F)cc4c(N5CC6CCC(C5)N6)nc(OC[C@]5(C)CN(C)CC[C@@H]5CF)nc4c3F)c12 [Example 99-1]	7.74
C#Cc1c(F)ccc2cc(O)cc(-c3c(F)cc4c(N5CC6CCC(C5)N6)nc(OC[C@]5(C)CN(CC)CCC5=C)nc4c3F)c12 (atropisomer, axis not shown; (Ra)) [Example 63, (Ra)-4-(4-((1R,5S)-3,8-diazabicyclo[3.2.1]octan-3-yl)-2-(((S)-1-ethyl-3-methyl-4-methylenepiperi-din-3-yl)methoxy)-6,8-difluoroquinazolin-7-yl)-5-ethynyl-6-fluoronaph-thalen-2-ol]	7.96
C#Cc1c(F)ccc2cc(O)cc(-c3c(F)cc4c(N5CC6CCC(C5)N6)nc(OC[C@]5(C)CN(CC)CC[C@H]5F)nc4c3F)c12 (atropisomer, axis not shown; (Ra)) [Example 50-3, (Ra)-4-(4-((1R,5S)-3,8-diazabicyclo[3.2.1]octan-3-yl)-2-(((35,4R)-1-ethyl-4-fluoro-3-methylpiperi-din-3-yl)methoxy)-6,8-difluoroquinazolin-7-yl)-5-ethynyl-6-fluoronaph-thalen-2-ol]	8.15
C#Cc1c(F)ccc2cc(O)cc(-c3c(F)cc4c(N5CC6CCC(C5)N6)nc(OC[C@]5(C)CN(CC)CC[C@@H]5F)nc4c3F)c12 (atropisomer, axis not shown; (Ra)) [Example 50-1, (Ra)-4-(4-((1R,5S)-3,8-diazabicyclo[3.2.1]octan-3-yl)-2-(((35,4S)-1-ethyl-4-fluoro-3-methylpiper-idin-3-yl)methoxy)-6,8-difluoroquinazolin-7-yl)-5-ethynyl-6-fluoronaph-thalen-2-ol]	7.82
CN1CC[C@H](C(F)F)[C@](C)(COc2nc(N3C[C@H]4CC[C@@H](C3)N4)c3cc(Cl)c(-c4cccc5sc(N)c(C#N)c45)c(F)c3n2)C1 [Example 312, 4-(4-((1R,5S)-3,8-diazabicyclo[3.2.1]octan-3-yl)-6-chloro-2-(((3S,4S)-4-(difluoromethyl)-1,3-dimethylpiperidin-3-yl)methoxy)-8-fluoroquinazolin-7-yl)-2-aminobenzo[b]thiophen-3-nitrile]	7.60
C#Cc1c(F)ccc2cc(O)cc(-c3nc(OC)c4c(N5C[C@H]6CC[C@@H](C5)N6)nc(OC[C@]5(C)CN(C)CC[C@@H]5F)nc4c3F)c12 [Example 262, 4-(4-((1R,5S)-3,8-diazabicyclo[3.2.1]octan-3-yl)-8-fluoro-2-(((3S,4S)-4-fluoro-1,3-dimethylpiperidin-3-yl)methoxy)-5-methoxypyrido[4,3-d]pyrimidin-7-yl)-5-ethynyl-6-fluoronaphthalen-2-ol]	7.82
